The values that follow are results of earlier work, collected in publication PMC4460250, “Systems Pharmacology Dissecting Holistic Medicine for Treatment of Complex Diseases: An Example Using Cardiocerebrovascular Diseases Treated by TCM” (Evidence-based Complementary and Alternative Medicine : eCAM, 2015).

Like-named read-outs stand apart in the source and are kept apart here.

The conditions of the series: cited from earlier work.

Regarding `CCCCC1=NC2(CCCC2)C(=O)N1Cc1ccc(-c2ccccc2-c2nnn[nH]2)cc1` [Irbesartan], the “HIA(Human Intestinal Absorption)” value (in vivo) is on record as 1.

With `O=C1CN(/N=C/c2ccc([N+](=O)[O-])o2)C(=O)N1` [Nitrofurantoin], the “HIA(Human Intestinal Absorption)” value (in vivo) was 0.95.

Consider `CCCCCC(=O)O[C@]1(C(C)=O)CC[C@H]2[C@@H]3CCC4=CC(=O)CC[C@]4(C)[C@H]3CC[C@@]21C` [Hydroxyprogesterone_caproate], for which the “HIA(Human Intestinal Absorption)” value (in vivo) was 0.9.

As for `CN(C/C=C/C#CC(C)(C)C)Cc1cccc2ccccc12` [Terbinafine], under “in vivo”, the “HIA(Human Intestinal Absorption)” value is on record as 0.8.

For the compound `O=C1CC[C@@]2(O)[C@H]3Cc4ccc(O)c5c4[C@@]2(CCN3CC2CC2)[C@H]1O5` [Naltrexone], the “HIA(Human Intestinal Absorption)” value (in vivo) was 0.95.

For `CC[C@H]1OC(=O)[C@H](C)[C@@H](O[C@H]2C[C@@](C)(OC)[C@@H](O)[C@H](C)O2)[C@H](C)[C@@H](O[C@@H]2O[C@H](C)C[C@H](N(C)C)[C@H]2O)[C@](C)(O)C[C@@H](C)C(=O)[C@H](C)[C@@H](O)[C@]1(C)O` [Erythromycin], the “HIA(Human Intestinal Absorption)” value (in vivo) is recorded as 0.35.

As to `CC1=NS(=O)(=O)c2cc(Cl)ccc2N1` [Diazoxide], the “HIA(Human Intestinal Absorption)” value (in vivo) is 0.9.

For `CO/N=C(\C(=O)N[C@@H]1C(=O)N2C(C(=O)O)=C(COC(N)=O)CS[C@H]12)c1ccco1` [Cefuroxime], the “HIA(Human Intestinal Absorption)” value (in vivo) is 1.

`COc1ccc(Cl)cc1C(=O)NCCc1ccc(S(=O)(=O)NC(=O)NC2CCCCC2)cc1` [Glyburide]: the “HIA(Human Intestinal Absorption)” value (in vivo) is reported as 1.

On to `Oc1ncnc2[nH]ncc12` [Allopurinol], for which the “HIA(Human Intestinal Absorption)” value (in vivo) was 0.8.

Consider `Cc1ccc(NC(=O)c2ccc(CN3CCN(C)CC3)cc2)cc1Nc1nccc(-c2cccnc2)n1` [Imatinib], for which the “HIA(Human Intestinal Absorption)” value (in vivo) is recorded as 0.98.

With `Cn1cc[nH]c1=S` [Methimazole], the “HIA(Human Intestinal Absorption)” value (in vivo) was 0.95.

On to `CN(C)CCC=C1c2ccccc2CCc2ccccc21` [Amitriptyline], for which the “HIA(Human Intestinal Absorption)” value (in vivo) is recorded as 0.95.

Regarding `NC(=O)c1ncn([C@@H]2O[C@H](CO)[C@@H](O)[C@H]2O)n1` [Ribavirin], where the note is “in vivo”, the “HIA(Human Intestinal Absorption)” value is listed as 0.33.

As for `O=C(Oc1ccccc1C(=O)O)c1ccccc1O` [Salsalate], the “HIA(Human Intestinal Absorption)” value (in vivo) was 1.

In the case of `CC#C[C@]1(O)CC[C@H]2[C@@H]3CCC4=CC(=O)CCC4=C3[C@@H](c3ccc(N(C)C)cc3)C[C@@]21C` [Mifepristone], for the setting “human, PreHIA data set, value given as fraction”, the “HIA(Human Intestinal Absorption)” value is listed as 0.9.

As to `[H]/N=C(/N)N[C@H]1[C@H](O)[C@@H](O)[C@H](O[C@@H]2O[C@@H](C)[C@](O)(C=O)[C@H]2O[C@@H]2O[C@@H](CO)[C@H](O)[C@@H](O)[C@@H]2NC)[C@@H](N/C(N)=N\[H])[C@@H]1O` [Streptomycin], the “HIA(Human Intestinal Absorption)” value (in vivo) is recorded as 0.01.

With `Cc1ccc(C)c(OCCCC(C)(C)C(=O)O)c1` [Gemfibrozil], the “HIA(Human Intestinal Absorption)” value (in vivo) is listed as 1.

On to `CC(C)(Oc1ccc(CCNC(=O)c2ccc(Cl)cc2)cc1)C(=O)O` [Bezafibrate], for which the “HIA(Human Intestinal Absorption)” value (in vivo) is on record as 1.

Turning to `OC[C@H]1O[C@@H](O[C@@H]2[C@@H](CO)OC(O)(CO)[C@H]2O)[C@H](O)[C@@H](O)[C@H]1O` (mixture of isomers) [Lactulose], the “HIA(Human Intestinal Absorption)” value (in vivo) was 0.01.

On to `CC(=O)c1ccc(S(=O)(=O)NC(=O)NC2CCCCC2)cc1` [Acetohexamide], for which the “HIA(Human Intestinal Absorption)” value (in vivo) is 0.8.

Regarding `CCCc1nc2c(C)cc(-c3nc4ccccc4n3C)cc2n1Cc1ccc(-c2ccccc2C(=O)O)cc1` [Telmisartan], the “HIA(Human Intestinal Absorption)” value (in vivo) is 0.9.

As for `CCOC(=O)[C@H](CCc1ccccc1)N[C@H]1CCCN2CCC[C@@H](C(=O)O)N2C1=O` [Cilazapril], where the note is “in vivo”, the “HIA(Human Intestinal Absorption)” value was 0.59.

`CCOC(=O)c1ncn2c1CN(C)C(=O)c1cc(F)ccc1-2` [Flumazenil]: the “HIA(Human Intestinal Absorption)” value (in vivo) was 0.95.

`CC(C)COCC(CN(Cc1ccccc1)c1ccccc1)N1CCCC1` (stereo not shown) [Bepridil]: the “HIA(Human Intestinal Absorption)” value (in vivo) was 1.
